Reference: ChEMBL document CHEMBL1137264, “Carbonic anhydrase inhibitors. Inhibition of the cytosolic human isozymes I and II, and the transmembrane, tumor-associated isozymes IX and XII with substituted aromatic sulfonamides activatable in hypoxic tumors” (Bioorg Med Chem Lett, 2006)
Several values for one entry are separate records, joined by “and”; a condition that tells them apart may be missing. Equal entries are not always repeated.

Key:
Carbonic anhydrase 9 = Carbonic anhydrase 9 (Homo sapiens, UniProt Q16790)
Description: Inhibition of human cloned CA9 catalytic domain by CO2 hydration assay

Carbonic anhydrase 1 = Carbonic anhydrase 1 (Homo sapiens, UniProt P00915)
Description: Inhibition of human cloned CA1 by CO2 hydration assay

Carbonic anhydrase 2 = Carbonic anhydrase 2 (Homo sapiens, UniProt P00918)
Description: Inhibition of human cloned CA2 by CO2 hydration assay

Carbonic anhydrase 12 = Carbonic anhydrase 12 (Homo sapiens, UniProt O43570)
Sequence of Carbonic anhydrase 12 (O43570 whole entry): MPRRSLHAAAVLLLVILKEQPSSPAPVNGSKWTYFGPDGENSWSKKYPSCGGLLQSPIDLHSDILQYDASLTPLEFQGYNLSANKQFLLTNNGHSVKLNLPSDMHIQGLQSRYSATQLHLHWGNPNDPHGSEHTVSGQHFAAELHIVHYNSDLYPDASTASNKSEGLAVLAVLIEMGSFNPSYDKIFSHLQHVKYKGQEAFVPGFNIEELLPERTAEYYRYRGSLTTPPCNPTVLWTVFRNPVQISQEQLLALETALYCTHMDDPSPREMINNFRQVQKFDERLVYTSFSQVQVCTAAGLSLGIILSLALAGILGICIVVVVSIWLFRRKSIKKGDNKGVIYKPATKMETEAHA
Description: Inhibition of human cloned CA12 catalytic domain by CO2 hydration assay

Sequence of Carbonic anhydrase 1 (P00915 whole entry): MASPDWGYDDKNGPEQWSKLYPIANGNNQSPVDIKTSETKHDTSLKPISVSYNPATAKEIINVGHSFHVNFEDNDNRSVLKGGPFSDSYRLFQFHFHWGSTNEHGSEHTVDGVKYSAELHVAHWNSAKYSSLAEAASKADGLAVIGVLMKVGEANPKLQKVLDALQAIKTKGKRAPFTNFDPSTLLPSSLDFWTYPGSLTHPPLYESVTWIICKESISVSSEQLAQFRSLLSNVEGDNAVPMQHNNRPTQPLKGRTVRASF

## Cc1cc(S(N)(=O)=O)c(S/C(=N\Nc2ccc([N+](=O)[O-])cc2)c2ccccc2)cc1Cl
Carbonic anhydrase 9
  Ki: > 10 µM
Carbonic anhydrase 1
  Ki: 379 µM
Carbonic anhydrase 2
  Ki: > 10 µM
Carbonic anhydrase 12
  Ki: > 10 µM

## COC(=O)CS(=O)(=O)c1cc(Cl)c(C)cc1S(N)(=O)=O
Carbonic anhydrase 9
  Ki: 1.84 µM
Carbonic anhydrase 1
  Ki: 5.1 µM
Carbonic anhydrase 2
  Ki: 0.0096 µM
Carbonic anhydrase 12
  Ki: 1.35 µM

## NS(=O)(=O)c1cc(C(=O)NCc2ccccc2)c(Cl)cc1SSc1cc(Cl)c(C(=O)NCc2ccccc2)cc1S(N)(=O)=O
Carbonic anhydrase 9
  Ki: > 10 µM
Carbonic anhydrase 1
  Ki: 82.1 µM
Carbonic anhydrase 2
  Ki: 6.1 µM
Carbonic anhydrase 12
  Ki: > 10 µM

## COC(=O)C(C)S(=O)(=O)c1cc(Cl)c(C)cc1S(N)(=O)=O (stereo unspecified)
Carbonic anhydrase 9
  Ki: 1.61 µM
Carbonic anhydrase 1
  Ki: 5.8 µM
Carbonic anhydrase 2
  Ki: 0.244 µM
Carbonic anhydrase 12
  Ki: 1.1 µM

## CC(C)CSc1cc2c(cc1S(N)(=O)=O)S(=O)(=O)NCN2
Carbonic anhydrase 9
  Ki: > 10 µM
Carbonic anhydrase 1
  Ki: 392 µM
Carbonic anhydrase 2
  Ki: 2.68 µM
Carbonic anhydrase 12
  Ki: 1 µM

## CC/C(=N/Nc1ccc([N+](=O)[O-])cc1)Sc1cc(Cl)c(C)cc1S(N)(=O)=O
Carbonic anhydrase 9
  Ki: > 10 µM
Carbonic anhydrase 1
  Ki: 220 µM
Carbonic anhydrase 2
  Ki: > 10 µM
Carbonic anhydrase 12
  Ki: > 10 µM

## NS(=O)(=O)c1cc2c(cc1SSc1cc3c(cc1S(N)(=O)=O)S(=O)(=O)NCN3)NCNS2(=O)=O
Carbonic anhydrase 9
  Ki: 0.78 µM
Carbonic anhydrase 1
  Ki: 310 µM
Carbonic anhydrase 2
  Ki: > 10 µM
Carbonic anhydrase 12
  Ki: 1.97 µM

## Cc1cc(S(N)(=O)=O)c(S(=O)(=O)CC(=O)O)cc1Cl
Carbonic anhydrase 9
  Ki: 5.44 µM
Carbonic anhydrase 1
  Ki: 11.6 µM
Carbonic anhydrase 2
  Ki: 0.547 µM
Carbonic anhydrase 12
  Ki: 2.4 µM

## NS(=O)(=O)c1cc(C(=O)NCc2ccccc2)c(Cl)cc1S
Carbonic anhydrase 9
  Ki: 0.0409 µM
Carbonic anhydrase 1
  Ki: 19.7 µM
Carbonic anhydrase 2
  Ki: 0.0199 µM
Carbonic anhydrase 12
  Ki: 0.0356 µM

## Cc1cc(S(N)(=O)=O)c(S/C(=N\NS(=O)(=O)c2ccccc2)c2ccccc2)cc1Cl
Carbonic anhydrase 9
  Ki: > 10 µM
Carbonic anhydrase 1
  Ki: 113 µM
Carbonic anhydrase 2
  Ki: > 10 µM
Carbonic anhydrase 12
  Ki: > 10 µM

## NS(=O)(=O)c1cc(C(=O)N2CCCC2)c(Cl)cc1S
Carbonic anhydrase 9
  Ki: 0.0145 µM
Carbonic anhydrase 1
  Ki: 2.6 µM
Carbonic anhydrase 2
  Ki: 0.0196 µM
Carbonic anhydrase 12
  Ki: 0.02 µM

## CSc1cc2c(cc1S(N)(=O)=O)S(=O)(=O)NCN2
Carbonic anhydrase 9
  Ki: 0.139 µM
Carbonic anhydrase 1
  Ki: 10.9 µM
Carbonic anhydrase 2
  Ki: 3.8 µM
Carbonic anhydrase 12
  Ki: 0.108 µM

## CCOC(=O)c1cc(S(N)(=O)=O)c(S)cc1Cl
Carbonic anhydrase 9
  Ki: 0.056 µM
Carbonic anhydrase 1
  Ki: 6.4 µM
Carbonic anhydrase 2
  Ki: 0.0185 µM
Carbonic anhydrase 12
  Ki: 0.053 µM

## Cc1cc(S(N)(=O)=O)c(S(=O)(=O)C(C)C(=O)O)cc1Cl (stereo unspecified)
Carbonic anhydrase 9
  Ki: 5 µM
Carbonic anhydrase 1
  Ki: 27.3 µM
Carbonic anhydrase 2
  Ki: 0.806 µM
Carbonic anhydrase 12
  Ki: 3.05 µM

## NS(=O)(=O)c1cc2c(cc1S)NCNS2(=O)=O
Carbonic anhydrase 9
  Ki: 0.113 µM and 0.115 µM
Carbonic anhydrase 1
  Ki: 7.5 µM and 7.3 µM
Carbonic anhydrase 2
  Ki: 0.0086 µM and 0.0087 µM
Carbonic anhydrase 12
  Ki: 0.117 µM and 0.118 µM

## Cc1cc(S(N)(=O)=O)c(S(=O)(=O)CC(=O)NN)cc1Cl
Carbonic anhydrase 9
  Ki: 1.44 µM
Carbonic anhydrase 1
  Ki: 7.7 µM
Carbonic anhydrase 2
  Ki: 0.0092 µM
Carbonic anhydrase 12
  Ki: 1.39 µM

## Cc1cc(S(N)(=O)=O)c(S(=O)(=O)C(C)C(=O)NN)cc1Cl (stereo unspecified)
Carbonic anhydrase 9
  Ki: 3.42 µM
Carbonic anhydrase 1
  Ki: 14.2 µM
Carbonic anhydrase 2
  Ki: 0.536 µM
Carbonic anhydrase 12
  Ki: 2.42 µM

## NS(=O)(=O)c1cc(C(=O)N2CCCC2)c(Cl)cc1SSc1cc(Cl)c(C(=O)N2CCCC2)cc1S(N)(=O)=O
Carbonic anhydrase 9
  Ki: 0.766 µM
Carbonic anhydrase 1
  Ki: 22.1 µM
Carbonic anhydrase 2
  Ki: 4.62 µM
Carbonic anhydrase 12
  Ki: 0.19 µM

## CCOC(=O)c1cc(S(N)(=O)=O)c(SSc2cc(Cl)c(C(=O)OCC)cc2S(N)(=O)=O)cc1Cl
Carbonic anhydrase 9
  Ki: > 10 µM
Carbonic anhydrase 1
  Ki: 7.8 µM
Carbonic anhydrase 2
  Ki: 5.57 µM
Carbonic anhydrase 12
  Ki: > 10 µM
